# Assay results: US10301320B2, “Compositions and methods of modulating 15-PGDH activity” (CASE WESTERN RESERVE UNIVERSITY, priority 2012, dated 2019)
# What was measured:
# [1] = tested on: V9m reporter cell line expressing a 15-PGDH luciferase fusion construct; assay: 15-PGDH-luciferase fusion gene reporter induction, V9m cell line; format: cell-based; settings: […], % increased luciferase activity over basal level
# How it was run: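 Colon cancer reporter lines were treated with compound at 2.5 uM or 7.5 uM. Luciferase activity is expressed as % increase over basal level in DMSO vehicle-treated cells, where 100 means a doubling.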
# [2] = tested on: 15-PGDH-luciferase fusion reporter in V9m, LS174T and V503 cell lines; assay: 15-PGDH-luciferase fusion gene reporter induction in three colon cancer cell lines (stated jointly); format: cell-based
# A549 cells = assay: Cellular toxicity on A549 cells (CellTiter-Glo, cell numbers); format: cell-based
# Description: (§1) Time to inhibition refers to the time needed to inhibit the generation of NADH by 15-PGDH from the moment with drug is added into the reaction mix. Delta™ refers to the shift in melting temperature of recombinant 15-PGDH in the presence of drug (with cofactor NADH also present). Concentration of Full Cell Line Reporter Induction refers to the concentration of drug that needs to be added to reporter cell line to achieve maximal induction of the 15-PGDH-luciferase gene fusion reporter cassette, as measured by luciferase assays. Hepatocyte stability refers to the half-life of compound in the presence of hepatocytes in culture. Toxicity refers to the concentration of compound needed to decrease cell numbers in a cell culture assay.
# FIGS. 38(A-C) show assays of cellular toxicity on A549 cells at 24 hours of 15-PGDH inhibitors as assayed by CellTiter-Glo measurement.
# FIGS. 84(A-C) show at left (84A) activity in lowering PGE2 levels in media of A549 cells that are stimulated to produce PGE2 by treatment with IL1-beta.
# Hepatocyte stability = format: in vitro ADME; settings: result in words
# Description: as §1
# [3] = tested on: CD45.2 marked C57BL/6J donor marrow in lethally irradiated CD45.1 mice; assay: Competitive bone marrow transplant, chimerism; format: in vivo; settings: donor 5 mg/kg IP daily for 3 doses; weeks 12 and 16
# Description: On day 3 mice were sacrificed, marrow flushed and mixed at a 1:1 ratio with vehicle treated CD45.1 marrow. 2 million whole BM cells were injected into the tail vein of lethally irradiated CD45.1 mice and percent chimerism measured via flow cytometry at weeks 8, 12, 16.
# C57BL/6J mice [4] = assay: Survival after 11 Gy irradiation and bone marrow allograft; format: in vivo
# Text: The experimental design is depicted in FIG. 50.
# Under the conditions of the mouse colony during this study, control mice receiving 100,000-500,000 cells are all dead between days 4-13 of study. […] Such activity would be of particular utility in settings, such as transplantation with umbilical cord stem cells, in which donor cell numbers are limited.
# C57BL/6J and FVB mice = assay: Liver regeneration after partial hepatectomy; format: in vivo
# C57BL/6J mice [5] = assay: Survival following acetaminophen (Tylenol) overdose; format: in vivo; settings: for Number of mice surviving: Table 10, first dose immediately after Tylenol;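 on all read-outs here: control mice received vehicle only, given once or twice per day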
smiles,measurement,setting,value
"CCCC[S+]([O-])c1sc2nc(-c3cccs3)cc(-c3ccccc3)c2c1N (stereo not shown) [SW033291, 2-(butylsulfinyl)-4-phenyl-6-(thiophen-2-yl)thieno[2,3-b]pyridin-3-amine]",V9M reporter activity ([…]),[1],93.16%
same,V9M reporter activity ([…]),[1]; 100 = doubling,98.24%
same,"Induction of 15-PGDH-luciferase reporter, in words",[2],increase luciferase activity
same,"Toxicity, CellTiter-Glo","A549 cells; 24 hours, up to 10 uM in FIG. 38",No effect on CellTitre-Glo levels
same,Toxicity,A549 cells; concentration needed to decrease cell numbers in a cell culture assay,>10 µM
same,Hepatocyte stability,Hepatocyte stability,Stable > couple hrs
same,Percent blood chimerism of CD45.2 marked cells,[3],significantly increased
same,"Survival of transplanted mice, in words",C57BL/6J mice [4]; 5 mg/kg IP twice daily,promoted survival of mice receiving a bone marrow transplant
same,Mouse survival (number of surviving mice),"C57BL/6J mice [4]; 1 × 10^5 cells, Day 1",3
same,Mouse survival (number of surviving mice),"C57BL/6J mice [4]; 1 × 10^5 cells, Day 2",3
same,Mouse survival (number of surviving mice),"C57BL/6J mice [4]; 1 × 10^5 cells, Day 3",3
same,Mouse survival (number of surviving mice),"C57BL/6J mice [4]; 1 × 10^5 cells, Day 4",2
same,Mouse survival (number of surviving mice),"C57BL/6J mice [4]; 1 × 10^5 cells, Day 5",1
same,Mouse survival (number of surviving mice),"C57BL/6J mice [4]; 1 × 10^5 cells, Day 6",0
same,Mouse survival (number of surviving mice),"C57BL/6J mice [4]; 2 × 10^5 cells, Day 1",3
same,Mouse survival (number of surviving mice),"C57BL/6J mice [4]; 2 × 10^5 cells, Day 2",3
same,Mouse survival (number of surviving mice),"C57BL/6J mice [4]; 2 × 10^5 cells, Day 3",3
same,Mouse survival (number of surviving mice),"C57BL/6J mice [4]; 2 × 10^5 cells, Day 4",3
same,Mouse survival (number of surviving mice),"C57BL/6J mice [4]; 2 × 10^5 cells, Day 5",3
same,Mouse survival (number of surviving mice),"C57BL/6J mice [4]; 2 × 10^5 cells, Day 6",2
same,Mouse survival (number of surviving mice),"C57BL/6J mice [4]; 2 × 10^5 cells, Day 7",2
same,Mouse survival (number of surviving mice),"C57BL/6J mice [4]; 2 × 10^5 cells, Day 8",2
same,Mouse survival (number of surviving mice),"C57BL/6J mice [4]; 2 × 10^5 cells, Day 9",2
same,Mouse survival (number of surviving mice),"C57BL/6J mice [4]; 2 × 10^5 cells, Day 10",2
same,Mouse survival (number of surviving mice),"C57BL/6J mice [4]; 2 × 10^5 cells, Day 11",2
same,Mouse survival (number of surviving mice),"C57BL/6J mice [4]; 2 × 10^5 cells, Day 12",1
same,Mouse survival (number of surviving mice),"C57BL/6J mice [4]; 2 × 10^5 cells, Day 13",0
same,Mouse survival (number of surviving mice),"C57BL/6J mice [4]; 5 × 10^5 cells, Day 1",3
same,Mouse survival (number of surviving mice),"C57BL/6J mice [4]; 5 × 10^5 cells, Day 2",3
same,Mouse survival (number of surviving mice),"C57BL/6J mice [4]; 5 × 10^5 cells, Day 3",3
same,Mouse survival (number of surviving mice),"C57BL/6J mice [4]; 5 × 10^5 cells, Day 4",3
same,Mouse survival (number of surviving mice),"C57BL/6J mice [4]; 5 × 10^5 cells, Day 5",3
same,Mouse survival (number of surviving mice),"C57BL/6J mice [4]; 5 × 10^5 cells, Day 6",3
same,Mouse survival (number of surviving mice),"C57BL/6J mice [4]; 5 × 10^5 cells, Day 7",3
same,Mouse survival (number of surviving mice),"C57BL/6J mice [4]; 5 × 10^5 cells, Day 8",2
same,Mouse survival (number of surviving mice),"C57BL/6J mice [4]; 5 × 10^5 cells, Day 9",2
same,Mouse survival (number of surviving mice),"C57BL/6J mice [4]; 5 × 10^5 cells, Day 10",2
same,Mouse survival (number of surviving mice),"C57BL/6J mice [4]; 5 × 10^5 cells, Day 11",2
same,Mouse survival (number of surviving mice),"C57BL/6J mice [4]; 5 × 10^5 cells, Day 12",2
same,Mouse survival (number of surviving mice),"C57BL/6J mice [4]; 5 × 10^5 cells, Day 13",2
same,Mouse survival (number of surviving mice),"C57BL/6J mice [4]; 5 × 10^5 cells, Day 19",2
same,"Hepatic mitosis, in words","C57BL/6J and FVB mice; C57BL/6J, 5 mg/kg IP daily",significantly increased hepatic mitosis versus controls on days 3 and 4
same,Serum ALT levels,"C57BL/6J and FVB mice; one mouse, 5 mg/kg IP twice daily",lower
same,"BrdU positive cells in liver, in words",C57BL/6J and FVB mice; post-operative day 2,clear increase in numbers of BrdU positive cells
same,Mice surviving at 120 hours,"C57BL/6J mice [5]; 5 mg/kg IP bid beginning 3 hours prior to acetaminophen, 6 doses",3 of 6
same,Mice surviving at 120 hours,"C57BL/6J mice [5]; 5 mg/kg IP bid beginning 48 hours prior to acetaminophen, 9 doses",10 of 12
same,Number of mice surviving,"C57BL/6J mice [5]; 1 dose daily, 16 hr",6
same,Number of mice surviving,"C57BL/6J mice [5]; 1 dose daily, 24 hrs",6
same,Number of mice surviving,"C57BL/6J mice [5]; 2 dose daily, 16 hr",6
same,Number of mice surviving,"C57BL/6J mice [5]; 2 dose daily, 24 hrs",6
same,Number of mice surviving,"C57BL/6J mice [5]; 2 dose daily, 48 hrs",3
same,Number of mice surviving,"C57BL/6J mice [5]; 2 dose daily, 64 hrs",3
same,Number of mice surviving,"C57BL/6J mice [5]; 2 dose daily, 72 hrs",3
same,Number of mice surviving,"C57BL/6J mice [5]; 2 dose daily, 88 hr",3
same,Number of mice surviving,"C57BL/6J mice [5]; 2 dose daily, 96 hr",3
same,Number of mice surviving,"C57BL/6J mice [5]; 2 dose daily, 112 hr",3
same,Number of mice surviving,"C57BL/6J mice [5]; 2 dose daily, 120 hr",3
same,Survival (number of mice),"C57BL/6J mice [5]; Table 11, bid beginning 48 hours prior to acetaminophen, 16 hr",12
same,Survival (number of mice),"C57BL/6J mice [5]; Table 11, bid beginning 48 hours prior to acetaminophen, 24 hrs",12
same,Survival (number of mice),"C57BL/6J mice [5]; Table 11, bid beginning 48 hours prior to acetaminophen, 40 hrs",11
same,Survival (number of mice),"C57BL/6J mice [5]; Table 11, bid beginning 48 hours prior to acetaminophen, 48 hrs",10
same,Survival (number of mice),"C57BL/6J mice [5]; Table 11, bid beginning 48 hours prior to acetaminophen, 64 hrs",10
same,Survival (number of mice),"C57BL/6J mice [5]; Table 11, bid beginning 48 hours prior to acetaminophen, 72 hrs",10
same,Survival (number of mice),"C57BL/6J mice [5]; Table 11, bid beginning 48 hours prior to acetaminophen, 88 hr",10
same,Survival (number of mice),"C57BL/6J mice [5]; Table 11, bid beginning 48 hours prior to acetaminophen, 96 hr",10
same,Survival (number of mice),"C57BL/6J mice [5]; Table 11, bid beginning 48 hours prior to acetaminophen, 112 hr",10
same,Survival (number of mice),"C57BL/6J mice [5]; Table 11, bid beginning 48 hours prior to acetaminophen, 120 hr",10
same,Survival (number of mice),"C57BL/6J mice [5]; Table 12, bid beginning 3 hours prior to acetaminophen, 16 hr",6
same,Survival (number of mice),"C57BL/6J mice [5]; Table 12, bid beginning 3 hours prior to acetaminophen, 24 hrs",5
same,Survival (number of mice),"C57BL/6J mice [5]; Table 12, bid beginning 3 hours prior to acetaminophen, 48 hrs",3
same,Survival (number of mice),"C57BL/6J mice [5]; Table 12, bid beginning 3 hours prior to acetaminophen, 64 hrs",3
same,Survival (number of mice),"C57BL/6J mice [5]; Table 12, bid beginning 3 hours prior to acetaminophen, 72 hrs",3
same,Survival (number of mice),"C57BL/6J mice [5]; Table 12, bid beginning 3 hours prior to acetaminophen, 88 hr",3
same,Survival (number of mice),"C57BL/6J mice [5]; Table 12, bid beginning 3 hours prior to acetaminophen, 96 hr",3
same,Survival (number of mice),"C57BL/6J mice [5]; Table 12, bid beginning 3 hours prior to acetaminophen, 112 hr",3
same,Survival (number of mice),"C57BL/6J mice [5]; Table 12, bid beginning 3 hours prior to acetaminophen, 120 hr",3
